In patent publication US20230218573A1, “INDOLE COMPOUNDS FOR THE TREATMENT OF NEURODEGENERATIVE DISEASES” (GALYAN BIO, INC., priority 2020, published 2023):
“Also recorded” adds a separate entry of the source. Where two headings read alike, the source gives them in different places. Each block holds one compound with its values, some of them ahead of it.

How the values were obtained:
[1] = molecular target: mHTT (Mus musculus, UniProt P42859, DEL28-30/G47A/INS49LLPQPQPP/INS60VA/L56P/P40L); assay: Diffuse mHTT levels in heat shocked STHdh 111/111 striatal cells by immunocytochemistry; conditions: for remaining activity at 10 µM: 48 h
Experimental: Pre-Treatment of striatal cell line - First the medium was removed and new DMEM (DMEM, high glucose, HEPES, no phenol red) medium, supplemented with 10% fetal bovine serum (FBS), 1% Penicillin-Streptomycin, containing 10 µM compound was added. The cells were incubated at 33° C. for 24 hours.
Heat shock - Cells were heat shocked for 3 hours at 41° C.
Treatment - Medium was removed and new DMEM (DMEM, high glucose, HEPES, no phenol red) medium, supplemented with 1% fetal bovine serum (FBS), 1% Penicillin-Streptomycin, containing 10 µM compound was added. The cells were incubated at 33° C. for 48 hours.
Staining - Cells were permeabilized with 0.3% Triton X-100 in 4° C. PBS (pH 7.4 from ThermoFisher) for 10 minutes. Then the cells were washed two times with 4° C. PBS. Subsequently, cells are blocked with 3% NGS (normal goat serum from Thermo Fisher) in 4° C. PBS for 1 hour. Cells were incubated with primary antibodies in blocking buffer (PBS, 3% NGS, 0.02% NaN3) over night at 4° C. Primary antibodies were mouse antipolyglutamine monoclonal antibody 3B5H10 (Sigma-Aldrich) at 1:250 dilution and Guinea Pig anti-MAP2 polyclonal antibody (Synaptic Systems) at 1:500 dilution. 3B5H10 binds to diffuse mHTT. Diffuse mHTT is a monomeric and small oligomeric mHTT.
Cells were washed 2 times with 4° C. PBS, and then incubated with secondary antibodies at 1:2000 dilution in blocking buffer for 1 hour at room temperature. […] Cells were washed 2 times with 4° C. PBS, and then the nuclei were counterstain with DAPI (ThermoFisher) for 10 min at room temperature in the dark. Cells were washed 2 times with 4° C. PBS, and then 4° C. PBS was added to cells and then images were acquired.
Fluorescence Imaging - Imaging sessions were performed on a confocal microscope system (Carl Zeiss Microscopy) equipped with a dual spinning disk unit (Yokogawa). All components of the imaging system were controlled via the ZEN 2 software suite (Carl Zeiss Microscopy). The laser lines used were 405 nm, 488 nm and 639 nm to excite DAPI or the respective fluorophores. […] Nested t test was performed to calculate the significance amongst repeated measurements using GraphPad Prism software.
ST HDH Q7/7 (CH00097, Coriell Institute) striatal derived cell line from a knock in transgenic mouse containing HTT loci with a humanized Exon 1 containing 7 polyglutamine repeats.
EC 50 value was determined with non-linear regression.

[2] = Modified PAMPA with brain lipids, blood brain barrier permeation by LC-MS-MS; format: in vitro ADME
Experimental: Compounds from the Biacore screening were analyzed in a modified Parallel Artificial Permeation Assay (PAMPA) assay for their ability to permeate the blood brain barrier. The filter material of a 96-well microplate is impregnated with brain lipids (Di, L. et al., Eur. J. Med. Chem. 2003 Mar;38(3):223-232). The test compounds were added to the donor compartment. […] Based on these permeation data, the drugs were classified as blood brain barrier permeating (BBB+) with a flux rate >50% or non-permeating (BBB-) with a flux rate <50%.

[3] = system: Htt14A2.6 PC12 cells (mHttex1-GFP); assay: mHTT aggregation by filter retardation assay in Htt14A2.6 PC12 cells; format: cell-based; conditions: 24 hour treatment, different concentrations
Experimental: Compounds from the Biacore screening were selected for measurement of aggregation in a cell model Htt14A2.6 PC12. Htt14A2.6 PC12 cells express a GFP- tagged 97Q mHtt exon 1 fusion protein (mHttex1-GFP) in the presence of ponasterone A. Htt14A2.6 PC12 cells were grown in medium containing 5 µM ponasterone A for 20 hours prior to treatment with the compounds. Htt14A2.6 PC12 cells were plated at 50~60% confluency. Compound 22 was tested at a final concentration of 80 nM, 400 nM and 10 µM in cell culture medium for 24 hours. Htt14A2.6 PC12 cells were harvested, rinsed, homogenized in cold phosphate-buffered saline containing protease inhibitor cocktail, and centrifuged at 16000 g for 30 min at 4° C. twice. About 25 µg total protein of each sample was resolved in 8% SDS PAGE, transferred onto PVDF membrane, blotted with an anti-GFP antibody, and visualized by ECL detection. mHTT aggregates were quantified from the cell lysates by filter retardation assay (Wanker, E.E., et al., Methods Enzymol (1999); 309: 375-386).

[4] = system: STHdh 111/111 striatal cells; assay: Cell viability (CellTiter Glo) of heat shocked STHdh 111/111 striatal cells; format: cell-based, mouse; conditions: STHdh 111/111, 10 µM, 48 hours treatment; for viability at 10 µM: Mus musculus, read-out: Cell Viability striatal cells 3h heat shocked
[5] = system: Mur46; conditions: 0.1 mM compound concentration
Experimental: MurTRX, Mur 16 and Mur46 Protein Purification - Proteins were loaded onto IMAC resin (ThermoFisher Scientific HisPur) and eluted in 200 mM imidazole, purified by gel filtration FPLC (HiLoad superdex-200, 26/60; GE Life sciences) and concentrated using 3 kDa cut off Vivaspin 20 PES centrifugal concentrators (Sartorius AG). Proteins were biotinylated using a 1:0.5 molar ratio of EZ-link™ Sulfo-NHS-LC-LC-Biotin (ThermoFisher Scientific) and thoroughly dialysed against PBS prior to Biacore coupling.
A customized biotin capture chip using NeutrAvidin as the capture ligand was created for this assay. To obtain high enough ligand density on the sensor chip surface, NeutrAvidin (Thermoscientific Pierce, Waltham, MA USA) was immobilised on all four sensor chip surfaces to a level of approximately 20,000 RU.
Capture of the Mur ligands to NeutrAvidin - Biotinylated proteins were diluted in HBS EP+ running buffer and captured on the sensor chip surface. Mur46 was coupled to the sensor chip first. After saturating FC3 with Mur46, target response levels for Mur16 and MurTRX were calculated based on their respective molecular weights. […]
Analog Screening-Methods - Analog or derivative compounds from the secondary screen were determined and were used in an analog Biacore SPR screen. […]

[6] = system: STHdh 7/7 striatal cells; assay: Cell viability of heat shocked STHdh 7/7 striatal cells; format: cell-based, mouse; conditions: 48 hours treatment; for viability at 10 µM: Mus musculus, read-out: Cell Viability striatal cells 3h heat shocked; for Cell Viability striatal cells 3h heat shocked: 10 µM
Experimental: RESULTS - Table 7b summarizes the effect of the compounds on cell viability. STHdh 7/7 were heat shocked for 3 hours and treated for 48 hours with small molecule compounds. Table 2 lists the cell viability in striatal cells after 48 hours.
Effect of Compound 22 on Cell Viability of Wildtype Striatal Neurons - STHdh 7/7 cells are striatal cells that express wildtype huntingtin. These cells were cultured in the same conditions as described above for STHdh 111/111. The neurons were first heat shocked for 3 hours at 41° C. as described above. After 48 hours of treatment with the small molecule Compounds, cell viability was determined using the method described above. The “buffer” control is represents cells treated with a buffer only, without any compounds added. Some of the compounds show higher cell viability in comparison to control heat shocked STHdh 7/7 neurons with buffer and no treatment (FIG. 9).

[7] = system: Exon1 Q46; assay: Circular dichroism of Exon1 Q46, predominantly α-helical state; format: biochemical; conditions: Exon1 Q46; conc. compound 1.62 µM
Experimental: Protein samples were diluted with buffer to 7.5 µM prior to Circular Dichroism (CD) measurements. Measurements were conducted at room temperature.
Four spectra at each measurement were taken every 1 nm from 200 to 260 nm, scanning at 50 nm/min with an averaging time of 1 sec. Spectra were obtained from samples in 20 mM phosphate, pH 7.4. Ten scans were averaged for each sample spectrum
Single-wavelength readings at 222 nm were obtained. After subtraction of the Trx contribution, the α-helical content of Httex1 was estimated from its mean residue ellipticity (MREHttex1) at 222 nm. This calculation was conducted as described by Bravo-Arredondo (Bravo-Arredondo, J.M. et al., J Biol Chem. 2018 Dec 21;293(51):19613-19623).
MRE Exon-1 […] and Q46 (Mean Residue Ellipticity) was measured every 1 sec for 300 sec; the 301 readings for each sample were averaged and MRE Trx subtracted. The number of amino acids in each sample to experience a change in helicity was estimated using a previously developed helix-coil transition model, which gave the change in fraction of helicity (ΔfHelix) by the following equation: […]
where MRE Exon1 Q26 or Q46 (MREHttex1 in the formula) describes the helix-coil transition, obtained from the difference between MRE Eon1 Q26 or Q46 at 222 nm of the fusion protein at the given temperature (in our case 37° C.) and the product of MRE Trx at 222 nm at the same temperature and the fraction of residues comprised by Trx in that particular construct, and
In order to calculate an equilibrium of the two states model, percent α-helicity was calculated using the relation of MREHttex1 = 0 and -34700 (deg cm^2 dmol^-1) for 0% and 100% helicity, respectively.
The CD measurements protocol for Compound 101 was the same as outlined above except that from 206 nm - 210 nm and 220 nm - 224 nm, the step size was 0.2 nm, and the bandwidth was 1 nm.

[8] = system: zebrafish larvae; assay: Zebrafish MPP+ motility model, photomotor assay; format: in vivo; conditions: MPP+ alone, 500 µM
Experimental: MPP+ selectively targets dopaminergic neurons; the putative mechanism is induction of K+ efflux, cell membrane hyperpolarization and inhibition of neuronal firing. This ultimately leads to an inhibition of complex I, a decrease in ATP production and promotion of the generation of reactive oxygen species upon accumulation in the mitochondria (3). The observed phenotype following exposure to 500 µM from 24 hours post fertilization (hpf) to 120 hpf is characterized by a decrease in movement during lights-on phases of a photomotor assay. In unpublished data below, representative locomotor perturbations of the distance moved and movement frequency is shown.
Six groups were included in each experiment. Immediately after spawning, 40 embryos per group were allocated to a 24-well plate and system water (solvent) was added to all wells. For assessment of neuroprotective potential, Compound 4 was added for a final concentration of 1, 10 and 20 µM (column 4-6). From the following day at 24 hpf, Compound 4 was co-incubated with 500 µM MPP+. MPP+ was prepared immediately prior to incubation and solutions were changed daily. At 120 hpf, drug treatment and MPP+ exposure was ceased and a 3X wash was performed with system water. Larvae were then relocated to 96-well plates for behavioral recording and placed in a separate recording room for 24-hour acclimation. Prior to behavioral recording, wells were fully replenished system water.
Naive group was exposed to solvent only. Vehicle group was exposed to solvent and vehicle corresponding to the vehicle of 20 µM drug solution (0.02% DMSO). MPP+ positive control was exposed to solvent and 500 µM MPP+. All compound groups were treated with the respective vehicle and respective concentration of compound 4.
Behavioral data was recorded from 1 p.m. on 6 dpf until shortly after wakening on 7 dpf. The recording consisted of a photomotor assay in which lights switch off and on in 30-minute intervals between 1 p.m. and 6 p.m., producing a consistent photomotor response. […] Upon lights being turned on again, the larvae cease movement followed by a return to baseline. This cycle is repeated five times. Following the last lights-off phase, constant illumination is presented until lights turn off at 10 p.m. for the night. Lights turn on again at 8 a.m. the following day.
Average movement frequency was measured during 30-minute lights-on phases of photomotor assay. Movement bouts were defined as initiated when velocity exceeded a threshold of 2 mm/s and ceased when velocity fell below 1 mm/s.
Distance moved (mm) was defined as the average distance moved during 30-minute lights-on phases of photomotor assay.
Data was obtained using EthoVision XT (Version 11.5.2016, Noldus) and exported to Microsoft Excel for data analysis. […]

[9] = read-out: mHTT after treatment, 10 µM, 3 h heat shock, 48 hours treatment, in comparison to untreated STHdh 111/111

Chain of mHTT (P42859 with tags, fused parts or gaps DEL28-30/P40L/G47A/INS49LLPQPQPP/L56P/INS60VA): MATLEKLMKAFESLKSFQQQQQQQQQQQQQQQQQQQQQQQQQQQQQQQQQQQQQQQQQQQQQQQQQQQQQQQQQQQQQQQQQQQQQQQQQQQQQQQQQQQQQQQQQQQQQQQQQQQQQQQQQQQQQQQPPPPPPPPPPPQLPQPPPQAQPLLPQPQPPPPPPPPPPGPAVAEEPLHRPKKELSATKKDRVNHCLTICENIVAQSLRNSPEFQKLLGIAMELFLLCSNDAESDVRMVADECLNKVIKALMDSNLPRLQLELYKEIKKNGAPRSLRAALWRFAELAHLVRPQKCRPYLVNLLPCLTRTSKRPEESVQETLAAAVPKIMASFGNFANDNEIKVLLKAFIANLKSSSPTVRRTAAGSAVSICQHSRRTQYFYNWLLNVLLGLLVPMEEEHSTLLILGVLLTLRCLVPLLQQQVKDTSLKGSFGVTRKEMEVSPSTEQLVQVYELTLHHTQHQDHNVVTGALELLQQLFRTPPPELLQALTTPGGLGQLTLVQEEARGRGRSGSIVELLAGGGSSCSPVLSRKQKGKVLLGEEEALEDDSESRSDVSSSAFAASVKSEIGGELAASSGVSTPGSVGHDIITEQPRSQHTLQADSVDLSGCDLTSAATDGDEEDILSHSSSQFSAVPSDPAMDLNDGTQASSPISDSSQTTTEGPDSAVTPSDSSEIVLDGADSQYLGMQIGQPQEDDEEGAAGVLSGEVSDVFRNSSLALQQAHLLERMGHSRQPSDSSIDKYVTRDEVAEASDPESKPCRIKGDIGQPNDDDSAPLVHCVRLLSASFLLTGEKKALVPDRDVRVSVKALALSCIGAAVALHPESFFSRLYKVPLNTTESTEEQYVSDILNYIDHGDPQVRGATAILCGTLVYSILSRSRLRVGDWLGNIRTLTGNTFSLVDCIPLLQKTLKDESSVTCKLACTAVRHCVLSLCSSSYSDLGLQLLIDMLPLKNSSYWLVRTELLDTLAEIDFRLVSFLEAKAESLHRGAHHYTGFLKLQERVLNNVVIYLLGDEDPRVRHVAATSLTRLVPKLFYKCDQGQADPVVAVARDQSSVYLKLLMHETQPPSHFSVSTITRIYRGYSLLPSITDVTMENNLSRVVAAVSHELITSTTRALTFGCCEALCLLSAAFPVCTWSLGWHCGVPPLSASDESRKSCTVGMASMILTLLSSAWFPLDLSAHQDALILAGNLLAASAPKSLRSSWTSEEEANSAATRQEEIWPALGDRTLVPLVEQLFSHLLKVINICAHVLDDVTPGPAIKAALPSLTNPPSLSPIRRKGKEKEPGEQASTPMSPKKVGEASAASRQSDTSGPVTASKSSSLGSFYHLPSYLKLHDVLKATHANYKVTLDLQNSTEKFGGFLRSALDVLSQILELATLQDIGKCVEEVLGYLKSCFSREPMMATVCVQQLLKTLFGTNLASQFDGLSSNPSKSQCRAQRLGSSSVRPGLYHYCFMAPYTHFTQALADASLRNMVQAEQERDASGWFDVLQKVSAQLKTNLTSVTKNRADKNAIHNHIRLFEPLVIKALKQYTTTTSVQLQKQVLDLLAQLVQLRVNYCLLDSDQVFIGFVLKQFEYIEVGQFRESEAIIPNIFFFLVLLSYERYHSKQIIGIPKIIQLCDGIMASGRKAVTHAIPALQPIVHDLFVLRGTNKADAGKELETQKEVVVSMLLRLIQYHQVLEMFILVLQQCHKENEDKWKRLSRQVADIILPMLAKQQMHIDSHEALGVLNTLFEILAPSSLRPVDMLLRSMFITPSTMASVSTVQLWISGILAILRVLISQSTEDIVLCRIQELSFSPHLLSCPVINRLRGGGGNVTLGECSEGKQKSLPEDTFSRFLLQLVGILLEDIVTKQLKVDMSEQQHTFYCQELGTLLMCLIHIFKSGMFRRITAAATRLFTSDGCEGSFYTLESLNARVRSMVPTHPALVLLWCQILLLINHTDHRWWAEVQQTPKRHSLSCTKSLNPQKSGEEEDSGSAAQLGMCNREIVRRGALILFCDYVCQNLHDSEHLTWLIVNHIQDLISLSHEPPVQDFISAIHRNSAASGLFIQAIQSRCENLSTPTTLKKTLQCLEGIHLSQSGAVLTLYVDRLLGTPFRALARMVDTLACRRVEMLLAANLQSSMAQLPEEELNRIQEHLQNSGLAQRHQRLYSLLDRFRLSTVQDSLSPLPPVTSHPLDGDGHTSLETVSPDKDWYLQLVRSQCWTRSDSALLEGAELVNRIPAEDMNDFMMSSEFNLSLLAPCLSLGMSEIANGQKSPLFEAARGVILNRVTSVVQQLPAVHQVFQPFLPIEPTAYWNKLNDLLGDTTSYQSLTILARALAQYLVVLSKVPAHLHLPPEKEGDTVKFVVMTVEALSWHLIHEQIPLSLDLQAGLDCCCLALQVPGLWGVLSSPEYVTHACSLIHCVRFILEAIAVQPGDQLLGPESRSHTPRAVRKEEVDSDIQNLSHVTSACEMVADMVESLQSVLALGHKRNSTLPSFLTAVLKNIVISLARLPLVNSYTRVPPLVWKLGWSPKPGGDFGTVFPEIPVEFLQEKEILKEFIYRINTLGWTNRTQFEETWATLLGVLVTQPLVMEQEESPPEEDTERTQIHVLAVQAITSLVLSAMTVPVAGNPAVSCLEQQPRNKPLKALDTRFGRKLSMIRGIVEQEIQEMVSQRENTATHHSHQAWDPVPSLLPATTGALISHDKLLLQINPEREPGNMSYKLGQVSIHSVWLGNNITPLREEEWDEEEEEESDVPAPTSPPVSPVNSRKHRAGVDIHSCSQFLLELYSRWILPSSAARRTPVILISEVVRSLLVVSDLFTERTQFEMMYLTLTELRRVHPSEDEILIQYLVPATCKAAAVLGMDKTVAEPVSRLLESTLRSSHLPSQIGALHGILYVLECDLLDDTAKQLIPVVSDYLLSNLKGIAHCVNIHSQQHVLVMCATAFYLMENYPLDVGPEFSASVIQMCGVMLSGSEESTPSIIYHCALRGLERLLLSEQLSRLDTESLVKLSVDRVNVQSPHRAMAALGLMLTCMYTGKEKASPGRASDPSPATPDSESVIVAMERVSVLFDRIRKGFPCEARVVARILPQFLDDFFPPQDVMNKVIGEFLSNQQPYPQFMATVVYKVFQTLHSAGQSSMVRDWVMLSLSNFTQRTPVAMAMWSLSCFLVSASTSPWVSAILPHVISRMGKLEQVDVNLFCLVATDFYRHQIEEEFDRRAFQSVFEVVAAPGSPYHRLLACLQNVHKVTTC

Compound: Cc1[nH]c2ccc(C(=O)NCCN(C)C)cc2c1C [Compound 7]
remaining activity at 10 µM ([1]; read-out: mHTT after treatment): 45%
Classification [2]: BBB+ (blood brain barrier permeating (BBB+) with a flux rate >50%)
recovery [2]: 88.5%
reduction of mHTT aggregation (filter retardation) [3]: A reduction of aggregation of Htt14A2.6 PC12 was not observed; also recorded: did not show a reduction of aggregation
viability at 10 µM [4]: 96%
Biacore affinity (RU^2) [5]: 122 RU^2

Compound: CCN(CC)CCNC(=O)c1ccc2c(c1)c(C)c(C)n2C [Compound 19, N-(2-(Diethylamino)ethyl)-1,2,3-dimethyl-1H-indole-5-carboxamide]
remaining activity at 10 µM [1, 9]: 45%
viability at 10 µM [4]: 76%

Compound: CCN(CC)CCNC(=O)c1ccc2[nH]c(C)c(C)c2c1 [Compound 21, N-(2-(Diethylamino)ethyl)-2,3-dimethyl-1H-indole-5-carboxamide]
viability at 10 µM [6]: 82.6%
viability at 10 µM [4]: 87%

remaining activity at 10 µM ([1]; read-out: mHTT after treatment): 49%
Compound: CCN(CC)CCNC(=O)c1ccc2[nH]c3c(c2c1)CCCC3 [Compound 26]
viability at 10 µM [4]: 82%

Compound: CCN(CC)CCNC(=O)c1ccc2[nH]c3c(c2c1)CCC3 [Compound 27]
remaining activity at 10 µM ([1]; read-out: mHTT after treatment): 50%
viability at 10 µM [4]: 66%

Compound: Cc1[nH]c2ccc(C(=O)NCCN3CCCC3)cc2c1C [Compound 29, 2,3-Dimethyl-N-(2-(pyrrolidin-1-yl)ethyl)-1H-indole-5-carboxamide]
viability at 10 µM [6]: 131%
viability at 10 µM [4]: 103%

Compound: Cc1c(C)n(C)c2ccc(C(=O)NCCN(C(C)C)C(C)C)cc12.Cl [Compound 39]
remaining activity at 10 µM [1, 9]: 58%
Cell Viability striatal cells 3h heat shocked [4]: 117

Compound: Cc1c(C)n(C)c2ccc(C(=O)NCCN3CCOCC3)cc12 [Compound 40]
mHTT after treatment ([1]; 10 µM, 3 h heat shock, 48 hours treatment, in comparison to untreated STHdh 111/111): 62%
viability at 10 µM [4]: 85%

Compound: Cc1c(C)n(C)c2ccc(C(=O)NCCN3CCC3)cc12 [Compound 44, N-(2-(Azetidin-1-yl)ethyl)-1,2,3-dimethyl-1H-indole-5-carboxamide]
remaining activity at 10 µM [1, 9]: 66%
viability at 10 µM [4]: 75%

Compound: Cc1c(C)n(C)c2ccc(C(=O)NCCN3CCN(C)CC3)cc12 [Compound 45]
remaining activity at 10 µM [1, 9]: 66%
viability at 10 µM [4]: 81%

remaining activity at 10 µM ([1]; read-out: mHTT after treatment): 73%
Compound: CCN(CC)CCNC(=O)c1ccc2[nH]ccc2c1 [Compound 52]
viability at 10 µM [4]: 59%

Compound: Cc1c(C)n(C)c2ccc(C(=O)NCCN(C(C)C)C(C)C)cc12 [Compound 56]
remaining activity at 10 µM ([1]; read-out: mHTT after treatment): 109%
Cell Viability striatal cells 3h heat shocked [6]: 64.1
Cell Viability striatal cells 3h heat shocked [4]: 27

Compound: Cc1c(C)n(C)c2ccc(C(=O)NCCN(C(C)C)C(C)C)cc12.Cl [Compound 59]
Cell Viability striatal cells 3h heat shocked [6]: 153.6

Compound: CC(C)N(CCNC(=O)c1ccc2[nH]ccc2c1)C(C)C [Compound 72]
viability at 10 µM [6]: 45.7%

Compound: Cc1[nH]c2ccc(C(=O)NC3CCC(N(C)C)CC3)cc2c1C (centres unmarked) [Compound 101, N-(4-(dimethylamino)cyclohexyl)-2,3-dimethyl-1H-indole-5-carboxamide]
Fraction Helix fH (%) [7]: 19.0%
viability at 10 µM [4]: 110%

Compound: Cc1[nH]c2ccc(C(=O)N(C)CCN(C)C3CC3)cc2c1C [Compound 114]
Biacore affinity (RU^2) [5]: 20 RU^2

Compound: C[n+]1ccc(-c2ccccc2)cc1 [MPP+, reference compound]
distance moved compared to naive larvae [8]: moved significantly shorter distances than naive larvae
